Measurements from US20240092758A1, “IMIDAZOLO INDAZOLE COMPOUNDS AS JAK INHIBITORS” (Theravance Biopharma R&D IP, LLC, priority 2021, published 2024).

Tests used:
[1] = biological target: JAK1 (Homo sapiens (Human), UniProt P23458); assay: Biochemical JAK kinase assay (LanthaScreen), JAK1; details: for Ki: read-out: JAK1 pKi (converted)
Method in brief: (§1)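 LanthaScreen format: phospho-STAT1 (pTyr701) detected with 2 nM Tb antibody after 10 mM EDTA quench. Kinase step used Km-level ATP and 200 nM STAT1 peptide, 1 h at ambient after 1 h pre-incubation. Inhibition fitted to IC50, reported as pKi.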

[2] = biological target: JAK2 (Homo sapiens (Human), UniProt O60674); assay: Biochemical JAK kinase assay (LanthaScreen), JAK2; details: for Ki: read-out: JAK2 pKi (converted)
Chain of JAK2 (O60674 whole entry): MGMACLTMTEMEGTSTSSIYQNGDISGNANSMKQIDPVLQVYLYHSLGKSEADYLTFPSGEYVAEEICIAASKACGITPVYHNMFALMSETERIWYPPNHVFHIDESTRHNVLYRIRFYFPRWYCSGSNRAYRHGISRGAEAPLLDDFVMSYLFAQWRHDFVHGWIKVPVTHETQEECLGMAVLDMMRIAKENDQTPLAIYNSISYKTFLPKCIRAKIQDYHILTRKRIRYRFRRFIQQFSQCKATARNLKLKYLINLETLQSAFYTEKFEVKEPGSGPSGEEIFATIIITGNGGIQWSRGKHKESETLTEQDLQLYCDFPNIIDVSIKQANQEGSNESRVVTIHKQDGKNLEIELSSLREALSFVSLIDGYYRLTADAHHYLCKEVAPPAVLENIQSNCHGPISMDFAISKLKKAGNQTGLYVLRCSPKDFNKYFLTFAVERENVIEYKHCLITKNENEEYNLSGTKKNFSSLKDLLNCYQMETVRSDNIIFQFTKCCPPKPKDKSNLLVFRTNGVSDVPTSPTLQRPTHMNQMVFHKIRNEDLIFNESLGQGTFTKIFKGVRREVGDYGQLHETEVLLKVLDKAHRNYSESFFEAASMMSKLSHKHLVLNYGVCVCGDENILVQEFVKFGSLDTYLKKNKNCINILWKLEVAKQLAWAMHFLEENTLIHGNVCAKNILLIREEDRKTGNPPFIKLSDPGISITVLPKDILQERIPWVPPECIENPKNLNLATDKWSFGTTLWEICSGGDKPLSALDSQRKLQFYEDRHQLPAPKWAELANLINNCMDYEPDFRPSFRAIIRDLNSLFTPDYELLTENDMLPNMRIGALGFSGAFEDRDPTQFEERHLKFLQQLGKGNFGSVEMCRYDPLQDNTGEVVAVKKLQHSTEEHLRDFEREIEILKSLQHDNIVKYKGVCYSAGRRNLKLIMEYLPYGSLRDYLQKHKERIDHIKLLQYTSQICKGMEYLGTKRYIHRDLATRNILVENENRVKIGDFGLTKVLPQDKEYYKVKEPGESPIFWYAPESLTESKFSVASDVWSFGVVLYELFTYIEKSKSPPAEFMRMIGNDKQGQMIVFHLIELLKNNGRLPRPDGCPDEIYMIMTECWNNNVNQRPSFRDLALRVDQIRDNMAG
Method in brief: as §1

[3] = test system: IL-13 induced STAT6 phosphorylation in BEAS-2B human lung epithelial cells; assay: Cellular JAKI potency assay (BEAS-2B); type: cell-based; details: Homo sapiens, BEAS-2B, BEAS-2B cells, read-out: BEAS2B pIC50 (converted)
Method in brief: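 BEAS-2B cells were preincubated with compound (0.1% DMSO) in HBSS/HEPES/BSA for 1 h at 37 °C, then stimulated with IL-13 (80 ng/mL before addition) for 30 min. After lysis, pSTAT6 (Tyr641) was quantified by AlphaLISA SureFire; IC50 from a 4-parameter fit of percent inhibition, reported as pIC50.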

Chain of JAK1 (P23458 whole entry): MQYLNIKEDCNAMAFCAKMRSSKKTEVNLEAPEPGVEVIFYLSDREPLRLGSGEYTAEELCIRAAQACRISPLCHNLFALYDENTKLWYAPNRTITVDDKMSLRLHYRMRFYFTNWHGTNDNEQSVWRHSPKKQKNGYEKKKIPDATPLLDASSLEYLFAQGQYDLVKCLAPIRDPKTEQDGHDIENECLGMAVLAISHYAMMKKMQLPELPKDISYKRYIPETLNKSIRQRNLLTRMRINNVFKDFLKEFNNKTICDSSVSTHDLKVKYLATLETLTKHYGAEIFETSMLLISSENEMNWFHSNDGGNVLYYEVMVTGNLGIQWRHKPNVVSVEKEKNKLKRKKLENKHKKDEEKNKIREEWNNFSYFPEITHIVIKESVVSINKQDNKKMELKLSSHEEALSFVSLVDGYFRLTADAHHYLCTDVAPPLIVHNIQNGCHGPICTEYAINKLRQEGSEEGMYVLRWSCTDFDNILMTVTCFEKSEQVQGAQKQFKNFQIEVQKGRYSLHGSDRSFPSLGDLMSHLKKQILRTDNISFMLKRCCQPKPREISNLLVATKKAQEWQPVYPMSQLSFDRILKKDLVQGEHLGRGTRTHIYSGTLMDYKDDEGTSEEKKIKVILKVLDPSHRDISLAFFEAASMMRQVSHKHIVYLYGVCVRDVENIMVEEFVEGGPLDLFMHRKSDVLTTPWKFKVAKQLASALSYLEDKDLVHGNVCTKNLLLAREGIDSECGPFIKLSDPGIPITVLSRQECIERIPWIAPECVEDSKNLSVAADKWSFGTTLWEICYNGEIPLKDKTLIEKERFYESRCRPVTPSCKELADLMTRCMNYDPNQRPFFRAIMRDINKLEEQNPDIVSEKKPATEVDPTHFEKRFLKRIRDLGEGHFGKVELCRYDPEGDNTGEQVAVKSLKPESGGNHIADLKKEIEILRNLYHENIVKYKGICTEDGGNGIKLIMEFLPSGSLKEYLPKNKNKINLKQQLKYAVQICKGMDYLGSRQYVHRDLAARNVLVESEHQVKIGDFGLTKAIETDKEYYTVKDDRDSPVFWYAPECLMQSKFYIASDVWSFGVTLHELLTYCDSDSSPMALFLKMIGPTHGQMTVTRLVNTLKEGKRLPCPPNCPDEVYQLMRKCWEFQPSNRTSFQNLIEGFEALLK

Row | Compound | Ki [1] [nM] | Ki [2] [nM] | IC50 [3] [nM] | JAK2 pKi [2] | JAK1 pKi [1]
1 | CCc1cc(O)ccc1-c1ccc2c(-c3nc(C4=CCN(CCNC(=O)C5CCC5)CC4)c[nH]3)n[nH]c2c1F [Example 317] | 0.1 to 1 | 0.1 to 1 | 10 to 31.6 | – | –
2 | CCc1cc(O)ccc1-c1ccc2c(-c3nc(C4=CCN(C[C@@H](C)CO)C4)c[nH]3)n[nH]c2c1F [Example 318] | 0.1 to 1 | 0.1 to 1 | 10 to 31.6 | – | –
3 | CCc1cc(O)ccc1-c1ccc2c(-c3nc(C4=CCN[C@H](C)C4)c[nH]3)n[nH]c2c1F [Example 319] | 0.1 to 1 | 0.1 to 1 | 10 to 31.6 | – | –
4 | CCc1cc(O)ccc1-c1ccc2c(-c3nc(C4=CCN(CCC5(O)CC5)C4)c[nH]3)n[nH]c2c1F [Example 320] | 0.1 to 1 | – | 10 to 31.6 | A (A represents a pKi value ≥10 (Ki≤0.1 nM)) | –
5 | CCc1cc(O)ccc1-c1ccc2c(-c3nc(C4=CCN(CCC5(O)CC5)CC4)c[nH]3)n[nH]c2c1F [Example 322] | 0.1 to 1 | 0.1 to 1 | 10 to 31.6 | – | –
6 | CCOC(=O)C1=C(c2c[nH]c(-c3n[nH]c4c(F)c(-c5ccc(O)cc5CC)ccc34)n2)CCNC1 [Example 323] | 0.1 to 1 | 0.1 to 1 | 10 to 31.6 | – | –
7 | CCc1cc(O)ccc1-c1ccc2c(-c3nc(C4=CCNCC4C)c[nH]3)n[nH]c2c1F (stereo not drawn) [Example 324] | 0.1 to 1 | 0.1 to 1 | 10 to 31.6 | – | –
8 | CCc1cc(O)ccc1-c1ccc2c(-c3nc(C4=C(C(=O)OC(C)C)CNCC4)c[nH]3)n[nH]c2c1F [Example 325] | 0.1 to 1 | 0.1 to 1 | 10 to 31.6 | – | –
9 | CCc1cc(O)ccc1-c1ccc2c(-c3nc(C4=CCN(Cc5cnoc5)CC4)c[nH]3)n[nH]c2c1F [Example 326] | 0.1 to 1 | 0.1 to 1 | 10 to 31.6 | – | –
10 | CCc1cc(O)ccc1-c1ccc2c(-c3nc(C4=CC(C)CNC4)c[nH]3)n[nH]c2c1F (stereo not drawn) [Example 327] | 0.1 to 1 | 0.1 to 1 | 10 to 31.6 | – | –
11 | CCc1cc(O)c(C)cc1-c1ccc2c(-c3nc(C4=CCNC4)c[nH]3)n[nH]c2c1F [Example 328] | 0.1 to 1 | 1 to 10 | 10 to 31.6 | – | –
12 | CCc1cc(O)ccc1-c1ccc2c(-c3nc(C4=C[C@H](CO)N(CCC(C)(C)O)C4)c[nH]3)n[nH]c2c1F [Example 329] | – | – | 10 to 31.6 | A (A represents a pKi value ≥10 (Ki≤0.1 nM)) | A (A represents a pKi value ≥10 (Ki≤0.1 nM))
13 | CCc1cc(O)ccc1-c1ccc2c(-c3nc(C4=CCN([C@H]5CC[C@](C)(O)CC5)C4)c[nH]3)n[nH]c2c1F [Example 330] | – | 0.1 to 1 | 10 to 31.6 | – | A (A represents a pKi value ≥10 (Ki≤0.1 nM))
14 | CCc1cc(O)ccc1-c1ccc2c(-c3nc(C4=CCN(C5CCC(CO)CC5)C4)c[nH]3)n[nH]c2c1F (stereo not drawn) [Example 331] | – | 0.1 to 1 | 10 to 31.6 | – | A (A represents a pKi value ≥10 (Ki≤0.1 nM))
15 | CCc1cc(O)ccc1-c1ccc2c(-c3nc(C4=CCN(C[C@H](C)CO)C4)c[nH]3)n[nH]c2c1F [Example 332] | 0.1 to 1 | 0.1 to 1 | 10 to 31.6 | – | –
16 | CCc1cc(O)ccc1-c1ccc2c(-c3nc(C4=CCN(C(=O)CN(C)C)C4)c[nH]3)n[nH]c2c1F [Example 333] | 0.1 to 1 | – | 10 to 31.6 | A (A represents a pKi value ≥10 (Ki≤0.1 nM)) | –
17 | CCc1cc(O)ccc1-c1ccc2c(-c3nc(C4=CCN(CCC5(O)CCC5)CC4)c[nH]3)n[nH]c2c1F [Example 334] | 0.1 to 1 | 0.1 to 1 | 10 to 31.6 | – | –
18 | CCc1cc(O)ccc1-c1ccc2c(-c3nc(C4=CC5CN(C)CCN5CC4)c[nH]3)n[nH]c2c1F (stereo not drawn) [Example 335] | 0.1 to 1 | 0.1 to 1 | 10 to 31.6 | – | –

Row | Compound | Ki [1] [nM] | Ki [2] [nM] | IC50 [3] [nM] | JAK2 pKi [2] | JAK1 pKi [1]
19 | CCc1cc(O)ccc1-c1ccc2c(-c3nc(C4=CC(C)(C)NC4)c[nH]3)n[nH]c2c1F [Example 336] | 0.1 to 1 | 0.1 to 1 | 10 to 31.6 | – | –
20 | CCc1cc(O)ccc1-c1ccc2c(-c3nc(C4=CC[C@H](C)N([C@H]5C[C@H](O)C5)C4)c[nH]3)n[nH]c2c1F [Example 337] | 0.1 to 1 | 0.1 to 1 | 10 to 31.6 | – | –
21 | CCc1cc(O)ccc1-c1ccc2c(-c3nc(C4=CCCN(CCC5(O)CC5)C4)c[nH]3)n[nH]c2c1F [Example 338] | 0.1 to 1 | 0.1 to 1 | 10 to 31.6 | – | –
22 | CCc1cc(O)ccc1-c1ccc2c(-c3nc(C4=C[C@@H](C)NCC4)c[nH]3)n[nH]c2c1F [Example 339] | 0.1 to 1 | 0.1 to 1 | 10 to 31.6 | – | –
23 | CCc1cc(O)ccc1-c1ccc2c(-c3nc(C4=C[C@H](CC(=O)N(CC)CC)NC4)c[nH]3)n[nH]c2c1F [Example 340] | – | – | 10 to 31.6 | A (A represents a pKi value ≥10 (Ki≤0.1 nM)) | A (A represents a pKi value ≥10 (Ki≤0.1 nM))
24 | CCc1cc(O)ccc1-c1ccc2c(-c3nc(C4=CCN([C@H]5CC[C@@](C)(O)CC5)C4)c[nH]3)n[nH]c2c1F [Example 341] | – | – | 10 to 31.6 | A (A represents a pKi value ≥10 (Ki≤0.1 nM)) | A (A represents a pKi value ≥10 (Ki≤0.1 nM))
25 | CCc1cc(O)ccc1-c1ccc2c(-c3nc(C4=CCN(CCC(=O)NC)C4)c[nH]3)n[nH]c2c1F [Example 342] | 0.1 to 1 | 0.1 to 1 | 10 to 31.6 | – | –
26 | CCc1cc(O)ccc1-c1ccc2c(-c3nc(C4=CCNC5(CC5)C4)c[nH]3)n[nH]c2c1 [Example 343] | 0.1 to 1 | 0.1 to 1 | 10 to 31.6 | – | –
27 | CCc1cc(O)ccc1-c1ccc2c(-c3nc(C4=C[C@@H](CO)N(C)C4)c[nH]3)n[nH]c2c1F [Example 344] | 0.1 to 1 | 0.1 to 1 | 10 to 31.6 | – | –
28 | CCc1cc(O)ccc1-c1ccc2c(-c3nc(C4=CCNC(CC)C4)c[nH]3)n[nH]c2c1F (stereo not drawn) [Example 346] | 1 to 10 | 0.1 to 1 | 10 to 31.6 | – | –
29 | CCc1cc(O)ccc1-c1ccc2c(-c3nc(C4=CCN[C@@H](CO)C4)c[nH]3)n[nH]c2c1F [Example 347] | – | – | 31.6 to 100 | A (A represents a pKi value ≥10 (Ki≤0.1 nM)) | A (A represents a pKi value ≥10 (Ki≤0.1 nM))
30 | CCc1cc(O)ccc1-c1ccc2c(-c3nc(C4=C[C@H](CO)NCC4)c[nH]3)n[nH]c2c1F [Example 348] | 0.1 to 1 | – | 31.6 to 100 | A (A represents a pKi value ≥10 (Ki≤0.1 nM)) | –
31 | CCc1cc(O)ccc1-c1ccc2c(-c3nc(C4=CCN(C(=O)CNC)C4)c[nH]3)n[nH]c2c1F [Example 349] | 0.1 to 1 | – | 31.6 to 100 | A (A represents a pKi value ≥10 (Ki≤0.1 nM)) | –
32 | CCc1cc(O)ccc1-c1ccc2c(-c3nc(C4=CCN(C(=O)CN5CCCC5)C4)c[nH]3)n[nH]c2c1F [Example 351] | 0.1 to 1 | – | 31.6 to 100 | A (A represents a pKi value ≥10 (Ki≤0.1 nM)) | –
33 | CCc1cc(O)ccc1-c1ccc2c(-c3nc(C4=CCNC5(CC5)C4)c[nH]3)n[nH]c2c1F [Example 352] | 0.1 to 1 | 0.1 to 1 | 31.6 to 100 | – | –
34 | CCOC(=O)C1=C(c2c[nH]c(-c3n[nH]c4cc(-c5ccc(O)cc5CC)ccc34)n2)CCNC1 [Example 354] | 0.1 to 1 | 0.1 to 1 | 31.6 to 100 | – | –
35 | CCc1cc(O)ccc1-c1ccc2c(-c3nc(C4=C[C@H](CO)N(Cc5cnoc5)C4)c[nH]3)n[nH]c2c1F [Example 355] | 0.1 to 1 | 0.1 to 1 | 31.6 to 100 | – | –
